According to article PMC3153478, “Structural Basis for Species Specific Inhibition of 17β-Hydroxysteroid Dehydrogenase Type 1 (17β-HSD1): Computational Study and Biological Validation” (PLoS ONE, 2011):
Where two headings read alike, the source gives them in different places.

Experiments:
marmoset 17β-HSD1 = target: T1, marmoset 17β-HSD1 (Callithrix jacchus, UniProt Q9GME2); assay: Inhibition of marmoset 17β-HSD1 (placental cytosolic fraction, tritiated E1, HPLC); type: biochemical, marmoset monkey (callithrix jacchus); settings: for IC50: read-out: Marmoset IC50 17ß-HSD1
T1 construct: For the partial purification of 17β-HSD1, the cytosolic fraction was precipitated with ammonium sulfate; from tissue; host or cells: marmoset placenta, cytosolic fraction, ammonium sulfate precipitate
T1 sequence (Q9GME2 1-314): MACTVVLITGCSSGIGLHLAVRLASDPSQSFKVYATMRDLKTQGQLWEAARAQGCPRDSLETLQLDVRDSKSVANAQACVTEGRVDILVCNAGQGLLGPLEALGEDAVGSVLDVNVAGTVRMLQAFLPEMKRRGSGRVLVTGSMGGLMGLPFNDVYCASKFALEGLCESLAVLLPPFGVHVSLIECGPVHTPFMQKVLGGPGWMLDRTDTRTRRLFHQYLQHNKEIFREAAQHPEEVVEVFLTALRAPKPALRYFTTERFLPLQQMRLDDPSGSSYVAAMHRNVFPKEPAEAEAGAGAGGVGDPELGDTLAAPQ
Description: (§1) Marmoset placental tissue was used as enzyme source and the proteins were partially purified following a described procedure. Tritiated E1 was incubated with 17β-HSD1, cofactor and inhibitor. The separation of substrate and product was performed by HPLC. In an assay similar to the 17β-HSD1 test, marmoset placental microsomes containing 17β-HSD2 were incubated with tritiated E2 in the presence of NAD^+ and inhibitor. Labelled product was quantified after HPLC separation.
(§2) [2, 4, 6, 7-^3H]-E1 and [2, 4, 6, 7-^3H]-E2 were bought from Perkin Elmer, Boston. Quickszint Flow 302 scintillator fluid was bought from Zinsser Analytic, Frankfurt. Marmoset 17β-HSD1 and 17β-HSD2 were obtained from marmoset placenta according to previously described procedures. Fresh marmoset placenta was homogenized and cytosolic and microsomal fractions were separated by centrifugation. For the partial purification of 17β-HSD1, the cytosolic fraction was precipitated with ammonium sulfate. 17β-HSD2 was obtained from the microsomal fraction.
Inhibitory activities were evaluated by an established method with minor modifications. Briefly, the enzyme preparation was incubated with NADH [500 µM] in the presence of potential inhibitors at 37°C in a phosphate buffer (50 mM) supplemented with 20% of glycerol and EDTA (1 mM). Inhibitor stock solutions were prepared in DMSO. The final concentration of DMSO was adjusted to 1% in all samples. The enzymatic reaction was started by addition of a mixture of unlabelled- and [2, 4, 6, 7-^3H]-E1 (final concentration: 500 nM, 0.15 µCi). After 10 min, the reaction was stopped by the addition of HgCl2 (10 mM) and the mixture was extracted with diethylether. After evaporation, the steroids were dissolved in acetonitrile. E1 and E2 were separated using acetonitrile/water (45∶55) as mobile phase in a C18 reverse phase chromatography column (Nucleodur C18 Gravity, 3 µm, Macherey-Nagel, Düren) connected to an HPLC-system (Agilent 1200 Series, Agilent Technologies, Waldbronn). Detection and quantification of the steroids were performed using a radioflow detector (Agilent 1200 Series, Agilent Technologies, Waldbronn). The conversion rate was calculated after analysis of the resulting chromatograms according to the following equation: [drawing 1] . Each value was calculated from at least three independent experiments.

human 17β-HSD2 = test system: human 17β-HSD2; set-up: method as in earlier work; settings: Human placental, microsomal fraction, substrate E2, 500 nM, cofactor NAD+, 1500 µM; ref literature (references indicated with the structural formulas in Fig. 3); read-out: Human IC50 17ß-HSD2; cited from earlier work
marmoset 17β-HSD2 = marmoset 17β-HSD2 (Callithrix jacchus, UniProt U3BEV1); assay: Inhibition of marmoset 17β-HSD2 (placental microsomes, tritiated E2, HPLC); type: biochemical, marmoset monkey (callithrix jacchus); settings: Logit transformed values calculated from % inhibition at 50 nM inhibitor concentration (trend for <30% or >70%), placental microsomal fraction, substrate E2 500 nM, NAD+ 1500 µM; for IC50: read-out: Marmoset IC50 17ß-HSD2
Description: as §1, §2
The 17β-HSD2 inhibition assay was performed similarly to the 17β-HSD1 procedure. The microsomal fraction was incubated with NAD^+ [1500 µM], test compound and a mixture of unlabelled- and [2, 4, 6, 7-^3H]-E2 (final concentration: 500 nM, 0.11 µCi) for 20 min at 37°C. Further treatment of the samples and HPLC separation was carried out as mentioned above. The conversion rate was calculated after analysis of the resulting chromatograms according to the following equation: [drawing 2] .

human 17β-HSD1 = test system: human 17β-HSD1; set-up: method as in earlier work; settings: Human placental, cytosolic fraction, substrate E1, 500 nM, cofactor NADH, 500 µM; ref literature (references indicated with the structural formulas in Fig. 3); read-out: Human IC50 17ß-HSD1; cited from earlier work
[1] = Logit transformed values calculated from % inhibition, inhibitor concentration: 5 nM, placental cytosolic fraction, substrate E1 500 nM, NADH 500 µM
[2] = Logit transformed values calculated from % inhibition at 50 nM inhibitor concentration (trend for <30% or >70%), placental cytosolic fraction, substrate E1 500 nM, NADH 500 µM

marmoset 17β-HSD2, sequence (U3BEV1 entry or part of it): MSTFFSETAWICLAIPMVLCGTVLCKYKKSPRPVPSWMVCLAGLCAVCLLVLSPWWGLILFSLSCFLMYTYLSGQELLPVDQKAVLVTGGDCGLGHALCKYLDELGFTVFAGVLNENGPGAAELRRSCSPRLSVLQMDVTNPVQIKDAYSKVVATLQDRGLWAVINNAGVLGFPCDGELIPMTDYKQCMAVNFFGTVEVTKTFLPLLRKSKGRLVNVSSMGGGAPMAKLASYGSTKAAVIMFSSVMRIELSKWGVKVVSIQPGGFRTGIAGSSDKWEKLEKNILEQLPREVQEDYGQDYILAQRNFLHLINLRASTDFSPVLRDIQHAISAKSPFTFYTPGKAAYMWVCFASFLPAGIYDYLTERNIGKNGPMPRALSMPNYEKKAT

| IC50 (marmoset 17β-HSD1; [1]) [nM] | IC50 (marmoset 17β-HSD2) [nM] | IC50 (marmoset 17β-HSD1; [2]) [nM] | Inhibitory potency toward marmoset 17β-HSD1 compared to the human enzyme (marmoset 17β-HSD1; comparison in words, marmoset vs human 17β-HSD1) | IC50 (marmoset 17β-HSD1) [nM] | Marmoset IC50 17ß-HSD1 (marmoset 17β-HSD1; [2]) | Marmoset IC50 17ß-HSD2 (marmoset 17β-HSD2) | SMILES | IC50 (human 17β-HSD2) [nM] | IC50 (human 17β-HSD1) [nM] |
| --- | --- | --- | --- | --- | --- | --- | --- | --- | --- |
| < 5 | > 50 | – | – | – | – | – | Oc1cccc(-c2ccc(-c3ccc(O)c(F)c3)s2)c1 [Compound 1] | 940 | 8 |
| – | > 50 | 102 | – | – | – | – | Oc1ccc(-c2cnc(-c3cccc(O)c3)s2)cc1 [Compound 2] | 4000 | 50 |
| – | > 50 | 31 | – | – | – | – | Oc1ccc(-c2ccc(-c3cccc(O)c3)s2)cc1 [Compound 3] | 1950 | 69 |
| – | > 50 | < 50 | – | – | – | – | Cc1cc(-c2ccc(-c3cccc(O)c3)s2)ccc1O [Compound 4] | 1970 | 46 |
| – | > 50 | < 50 | – | – | – | – | Cc1cc(-c2cnc(-c3cccc(O)c3)s2)ccc1O [Compound 5] | 2020 | 143 |
| < 5 | 85 | – | – | – | – | – | Oc1ccc(-c2ccc(-c3cc(O)cc(F)c3)s2)cc1 [Compound 6] | 463 | 42 |
| < 5 | 43 | – | – | – | – | – | Oc1cc(F)cc(-c2ccc(-c3ccc(O)c(F)c3)s2)c1 [Compound 7] | 218 | 17 |
| – | 43 | < 50 | Comparable inhibition data | – | – | – | O=C(c1cccc(O)c1)c1ccc(-c2ccc(O)cc2)s1 [Compound 12] | 478 | 33 |
| – | – | – | – | > 50 | – | – | Oc1cccc(-c2ccc3cc(O)ccc3c2)c1 [Compound 14] | 5640 | 116 |
| – | > 50 | 32 | – | – | – | – | Oc1cccc(-c2ccc3c(-c4cccc(O)c4)c(O)ccc3c2)c1 [Compound 15] | 959 | 36 |
| – | > 50 | > 50 | – | – | – | – | Oc1cccc(-c2ccc3c(-c4cccnc4)c(O)ccc3c2)c1 [Compound 16] | 1160 | 26 |
| – | > 50 | 52 | – | – | – | – | Oc1cccc(-c2ccc3c(-c4ccccc4)c(O)ccc3c2)c1 [Compound 17] | 540 | 20 |
| – | > 50 | – | – | – | n.i. | – | Nc1cccc(-c2c(O)ccc3cc(-c4cccc(O)c4)ccc23)c1 [Compound 18] | – | 53 |
| – | > 50 | > 50 | – | – | – | – | CS(=O)(=O)Nc1cccc(-c2c(O)ccc3cc(-c4cccc(O)c4)ccc23)c1 [Compound 19] | 403 | 15 |
| – | – | > 50 | – | – | – | n.i. | CC(=O)Nc1cccc(-c2c(O)ccc3cc(-c4cccc(O)c4)ccc23)c1 [Compound 20] | 1240 | 83 |
